Experimental data taken from US20260022126A1, “2-(L,8-DIETHYL-1,3,4,9-TETRAHYDROPYRANO[3,4-B]INDOL-1-YL)-N-(2-(PIPERIDIN-1 YL)ETHYL)ACETAMIDE ETODOLAC DERIVATIVE AS A EUKARYOTIC ELONGATION FACTOR 2 KINASE (EEF2K) INHIBITOR FOR TARGETED CANCER THERAPY” (BAHCESEHIR UNIVERSITESI, priority 2023, published 2026).

Legend:
[1] = target: T1, eEF2K (Homo sapiens, UniProt O00418); experiment: Western blot of p-EF2 (Thr56) for eEF2K inhibition in MDA-MB-231 cells; assay type: cell-based; details: for eEF2K inhibition potential: MDA-MB-231 (TNBC) cells, 2.5 to 20 micromolar
T1 sequence (O00418 1-725): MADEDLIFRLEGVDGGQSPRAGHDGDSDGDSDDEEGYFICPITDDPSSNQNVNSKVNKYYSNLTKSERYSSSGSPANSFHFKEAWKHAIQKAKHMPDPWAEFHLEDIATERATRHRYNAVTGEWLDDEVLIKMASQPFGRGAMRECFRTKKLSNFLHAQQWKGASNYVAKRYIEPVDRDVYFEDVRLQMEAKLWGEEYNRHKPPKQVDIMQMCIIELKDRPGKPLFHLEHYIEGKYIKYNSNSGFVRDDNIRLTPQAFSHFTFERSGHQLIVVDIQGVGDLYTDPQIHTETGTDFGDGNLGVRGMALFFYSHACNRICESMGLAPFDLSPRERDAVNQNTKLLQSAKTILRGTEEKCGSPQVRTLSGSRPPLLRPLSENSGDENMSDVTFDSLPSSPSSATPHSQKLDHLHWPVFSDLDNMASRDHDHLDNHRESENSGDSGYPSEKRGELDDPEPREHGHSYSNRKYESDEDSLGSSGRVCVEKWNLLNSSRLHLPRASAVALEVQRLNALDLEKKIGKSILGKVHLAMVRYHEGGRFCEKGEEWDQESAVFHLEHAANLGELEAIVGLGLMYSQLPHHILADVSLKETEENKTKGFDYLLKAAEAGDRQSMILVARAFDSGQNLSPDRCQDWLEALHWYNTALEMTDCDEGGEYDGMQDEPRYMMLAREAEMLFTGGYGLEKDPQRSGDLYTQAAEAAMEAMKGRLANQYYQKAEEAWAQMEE
Description: MeOH: distilled water by volume (%) (70:30) was used as the mobile phase for HPLC analysis for the inventive compound and the flow rate was set to 1 mL min^-1. Triple negative breast cancer (TNBC) cell lines (ER-, PR- and HER2-) MDA-MB-231 cells were purchased from the American Type Culture Collection (ATCC) (Manassas, VA, USA). MDA-MB-231 cells were cultured in Dulbecco's modified Eagle's medium (DMEM)/F12 supplemented with 10% FBS (Fetal Bovine Serum) and 100 U mL^-1 penicillin and streptomycin. Specific antibodies (p-EF2 (Thr56) (2331S), eEF2 (2332S), eEF2K (3692S) and GAPDH (5174S)) were purchased from Cell Signaling Technology (CST).
Western blot analysis was carried out according to previously reported studies to evaluate the eEF2K inhibition activity for the synthesized compounds. The synthesized compound was applied to MDA-MB-231 cells in the range of various concentrations from 2.5 to 20 micromolar for 2 h treatment. The expression levels of p-EF2 (Thr56) inhibition and eEF2K activity were determined by using related antibodies such as p-EF2 (Thr56), eEF2 and eEF2K. Glyceraldehyde 3-phosphate dehydrogenase (GAPDH) was used as a loading control.
To determine the effects of the synthesized compounds in inhibiting eEF2K activity in TNBC, MDA-MB-231 cells, we performed western blot analysis at concentrations ranging from 2.5 micromolar to 20 micromolar in a dose-dependent manner. eEF2K inhibition was detected by decreased phosphorylation levels of EF2 (p-EF2-Thr-56), a direct downstream substrate of the enzyme.

[2] = tested on: cancer cells; details: literature; very high doses; cited from earlier work
[3] = target: T1, eEF2K; details: literature, cited from earlier work
[4] = tested on: other protein kinases; details: literature; cited from earlier work

Row | SMILES | eEF2K inhibition potential ([1]; western blot) | eEF2K inhibition (in words) [3] | Activity against other kinases (specificity) [4] | also measured
1 | CCc1cccc2c3c([nH]c12)C(CC)(CC(=O)O)OCC3 (racemic) [Etodolac, (R,S)-2-[1,8-diethyl-1,3,4-tetrahydropyrano[3,4-b]indol-1-yl] acetic acid] | did not show any inhibition potential | – | – | –
2 | CCn1c(=O)c2cc(C(N)=O)c(N)nc2n(C2CC2)c1=O [A484954] | – | – | – | Dose showing inhibition effect in cancer cells [2]: 75 µM
3 | CCCCCCCCCCCCCCCCn1cc[n+](Cc2ccccc2)c1C.[I-] [NH125] | – | does not inhibit EF2K but rather increases eEF2 phosphorylation | – | –
4 | Cc1cc(C=C2C(=O)C=CC2=O)cc(C)c1O [TX1918] | – | did not show significant eEF2K inhibition | inhibitory activity against five different kinases | Concentration reported to inhibit eEF2K ([3]; concentrations as high as): 10 µM
5 | CC(=O)c1c(O)c(C)c(O)c(Cc2c(O)c3c(c(C(=O)/C=C/c4ccccc4)c2O)OC(C)(C)C=C3)c1O [rottlerin] | – | – | inhibits various other protein kinases at concentrations lower than those required for inhibition of eEF2K | –
6 | CCc1cccc2c3c([nH]c12)C(CC)(CC(=O)NCCN1CCCCC1)OCC3 (stereo not shown) [Inventive compound, 2-(1,8-Diethyl-1,3,4,9-tetrahydropyrano[3,4-b]indol-1-yl)-N-(2-(piperidin-1-yl)ethyl)acetamide] | high inhibition potential | – | – | phospho-eEF2 (Thr56) inhibition ([1]; MDA-MB-231 cells, 2.5 and 5 micromolar, 2 h treatment): highest phospho-eEF2 (Thr56) inhibition; eEF2K inhibition (reduced levels of p-EF2) ([1]; MDA-MB-231 cells, 2.5 micromolar, compared to etodolac (EC), western blot): marked inhibition of eEF2K
